Source: patent US4025626A, “7-Acyl-3-(ureidoalkyl substituted tetrazolylthiomethyl)-cephalosporins” (SmithKline Corporation, priority 1975, dated 1977)
Converted amounts (≈) assume the structure as drawn. Read-outs that look alike come from different tables or passages of the source.

Columns and labels:
E. coli 12140 = experiment: in vivo mouse protection test; settings: Escherichia coli
Protocol: (§1) 4200 upon subcutaneous injection; and 17.5 mg./kg. against E. coli 12140 and 25.5 mg./kg. against Kleb. pneumo. 4200 upon oral administration.

Kleb. pneumo. 4200 = experiment: in vivo mouse protection test
Protocol: as §1

E. coli SK 12140 = experiment: in vitro MIC testing; assay type: cell-based; settings: Escherichia coli, SK12140, two values given
Protocol: (§2) The compounds of Formula I have exceptional antibacterial activity against both Gram-positive and Gram-negative organisms. Minimum inhibitory concentrations (MIC's) range from 0.1 to >200 μg./ml. in in vitro testing. Test results for the compound 7-D-mandelamido-3-[1-(2-ureidoethyl)tetrazol-5-ylthiomethyl]-3-cephem-4-carboxylic acid are given below: […]

S. aureus HH 127 = experiment: in vitro MIC testing; assay type: cell-based; settings: two values given
Protocol: as §2

Entero. cloacae HH 31254 = experiment: in vitro MIC testing; assay type: cell-based; settings: Enterobacter cloacae, HH31254, two values given
Protocol: as §2

[1] = test system: Serratia Marc. ATCC 13880; experiment: in vitro MIC testing; assay type: cell-based; settings: ATCC13880, two values given
Protocol: as §2

Shigella HH 117 = experiment: in vitro MIC testing; assay type: cell-based; settings: two values given
Protocol: as §2

Kleb. pneumo. SK 1200 = experiment: in vitro MIC testing; assay type: cell-based; settings: two values given
Protocol: as §2

Kleb. pneumo. SK 4200 = experiment: in vitro MIC testing; assay type: cell-based; settings: two values given
Protocol: as §2

S. villaluz SK 70390 = experiment: in vitro MIC testing; assay type: cell-based; settings: two values given
Protocol: as §2

S. aureus SK 23390 = experiment: in vitro MIC testing; assay type: cell-based; settings: Staphylococcus aureus, SK23390, two values given
Protocol: as §2

E. coli HH 33779 = experiment: in vitro MIC testing; assay type: cell-based; settings: Escherichia coli, HH33779, two values given
Protocol: as §2

Strep. faecalis HH 34358 = experiment: in vitro MIC testing; assay type: cell-based; settings: Enterococcus faecalis, HH34358, two values given
Protocol: as §2

Pseudo. aerug. HH 63 = experiment: in vitro MIC testing; assay type: cell-based; settings: two values given
Protocol: as §2

Proteus morgani 179 = experiment: in vitro MIC testing; assay type: cell-based; settings: two values given
Protocol: as §2

## NC(=O)NCCn1nnnc1SCC1=C(C(=O)O)N2C(=O)C(NC(=O)[C@H](O)c3ccccc3)[C@H]2SC1 (stereo partly drawn) [7-D-Mandelamido-3-[1-(2-ureidoethyl)tetrazol-5-ylthiomethyl]-3-cephem-4-carboxylic acid]
E. coli 12140; E. coli 12140, oral administration
  ED50: 17.5 mg/kg
E. coli 12140; sc, E. coli 12140, subcutaneous injection
  ED50: 0.86 mg/kg
Kleb. pneumo. 4200; Kleb. pneumo. 4200, oral administration
  ED50: 25.5 mg/kg
Kleb. pneumo. 4200; sc, Kleb. pneumo. 4200, subcutaneous injection
  ED50: 1.34 mg/kg
E. coli SK 12140
  MIC: 0.8 µg/mL (≈ 1.5 µM)
S. aureus HH 127; S. aureus HH 127
  MIC: 1.6 µg/mL (≈ 2.99 µM)
S. aureus HH 127; Staphylococcus aureus, HH127, S. aureus HH 127, read-out: MIC
  MIC: 3.1 µg/mL (≈ 5.8 µM)
Entero. cloacae HH 31254
  MIC: 0.8 µg/mL (≈ 1.5 µM)
[1]
  MIC: 25 µg/mL (≈ 46.8 µM)
Shigella HH 117; Shigella HH 117
  MIC: 0.2 µg/mL (≈ 0.374 µM)
Shigella HH 117; Shigella, HH117, Shigella HH 117, read-out: MIC
  MIC: 0.1 µg/mL (≈ 0.187 µM)
Kleb. pneumo. SK 1200
  MIC: 0.4 µg/mL (≈ 0.748 µM)
Kleb. pneumo. SK 4200
  MIC: 0.8 µg/mL (≈ 1.5 µM)
S. villaluz SK 70390
  MIC: 25 µg/mL (≈ 46.8 µM)
S. aureus SK 23390
  MIC: 0.4 µg/mL (≈ 0.748 µM)
E. coli HH 33779
  MIC: 1.6 µg/mL (≈ 2.99 µM)
Strep. faecalis HH 34358
  MIC: 25 µg/mL (≈ 46.8 µM)
Pseudo. aerug. HH 63
  MIC: > 200 µg/mL
Proteus morgani 179
  MIC: 0.8 µg/mL (≈ 1.5 µM)
